One assay concerns the target T1, human SGLT-1 (Homo sapiens, UniProt P13866).
T1 construct: Full-length human SGLT-1 cDNA in the pCMV-XL-Neo expression vector was obtained from Origene Corporation; host or cells: CHO-K1 cells (American Type Culture Collection), stably transfected, G418-selected
T1 sequence (P13866 1-664): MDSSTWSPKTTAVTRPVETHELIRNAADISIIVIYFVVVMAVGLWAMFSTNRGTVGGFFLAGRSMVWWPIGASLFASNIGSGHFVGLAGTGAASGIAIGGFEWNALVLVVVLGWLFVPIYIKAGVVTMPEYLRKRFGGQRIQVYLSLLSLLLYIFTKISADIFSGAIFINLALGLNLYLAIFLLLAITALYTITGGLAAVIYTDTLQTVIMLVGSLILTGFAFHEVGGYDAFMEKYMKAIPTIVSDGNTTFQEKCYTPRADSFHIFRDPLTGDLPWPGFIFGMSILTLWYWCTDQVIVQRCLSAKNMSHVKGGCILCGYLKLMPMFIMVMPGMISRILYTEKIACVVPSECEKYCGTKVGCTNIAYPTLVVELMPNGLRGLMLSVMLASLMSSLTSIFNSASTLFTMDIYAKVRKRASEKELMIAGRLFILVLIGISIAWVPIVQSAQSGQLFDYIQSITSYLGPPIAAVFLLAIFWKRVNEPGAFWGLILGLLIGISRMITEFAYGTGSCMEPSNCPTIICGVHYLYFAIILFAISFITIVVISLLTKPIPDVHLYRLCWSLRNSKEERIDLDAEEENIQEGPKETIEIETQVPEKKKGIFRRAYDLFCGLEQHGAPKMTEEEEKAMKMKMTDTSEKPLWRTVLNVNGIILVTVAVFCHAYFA
Nature of the assay: Methyl-α-D-[U-14C]glucopyranoside uptake assay for SGLT-1 in CHO-K1 cells. The assay is classed as cell-based. The note with it: CHO-K1 cells expressing hSGLT-1; for inhibition at 0.1 µM / inhibition at 1 µM / inhibition at 10 µM: read-out: % inhibition of Methyl-α-D-[U-^14C] Glucopyranoside uptake (CHO-K1 cells) mediated by SGLT-1. As to the method: Preparation of Human SGLT-1 Expressing Cells
Full-length human SGLT-1 cDNA in the pCMV-XL-Neo expression vector was obtained from Origene Corporation and propagated in Escherichia coli strain DH5α using Luria-Bertani (LB) medium containing ampicillin. […] Stably transfected cells were selected using G418 antibiotic selection pressure.
Methyl-α-D-[U-^14C]Glucopyranoside Uptake Assay for SGLT-1
(§1) Cells expressing hSGLT-1 were seeded on 96-well tissue culture plates (Greiner, Inc.) in RPMI containing 10% FBS and 800 μg/ml G418 (0.8×10^5 cells per well in 200 μL medium) and incubated at 37° C. under 5% carbon dioxide for 24 h prior to the assay. Cells were washed twice with 200 μL of either sodium buffer (140 mM NaCl, 4.7 mM KCl, 2.2 mM CaCl2, 1.2 mM MgCl2, 10 mM Tris/Hepes, pH 7.4) or sodium-free buffer (137 mM N-methyl-glucamine, 4.7 mM KCl, 2.2 mM CaCl2, 1.2 mM MgCl2, 10 mM Tris/Hepes, pH 7.4). Reaction mixture containing test compounds diluted in assay buffer, 1 mM unlabeled Methyl-α-D-glucopyranoside and 1 μCi/well methyl-α-D-[U-^14C]glucopyranoside (American Radiochemicals) was added per well of a 96-well plate and incubated at 37° C. for 1 h. Cells were washed thrice with 200 μL of wash buffer (140 mM NaCl, 4.7 mM KCl, 2.2 mM CaCl2, 1.2 mM MgCl2, 10 mM Tris/Hepes, pH 7.4 containing 500 μM phlorizin) and lysed using 50 μL of 0.25N NaOH. Methyl-α-D[U-^14C]glucopyranoside uptake was quantitated using a Top count scintillation counter (PerkinElmer, Inc.). All the test compounds were assayed in triplicates.

In another assay the target is T2, mouse SGLT-2 (Mus musculus, UniProt Q923I7).
T2 construct: Full-length mouse SGLT-2 cDNA was amplified from C57BL/6J mouse kidneys and introduced in the pcDNA3.1(+) expression vector; expressed in transfected cells; host or cells: CHO-K1 cells (American Type Culture Collection), stably transfected, G418-selected
T2 sequence (Q923I7 1-670): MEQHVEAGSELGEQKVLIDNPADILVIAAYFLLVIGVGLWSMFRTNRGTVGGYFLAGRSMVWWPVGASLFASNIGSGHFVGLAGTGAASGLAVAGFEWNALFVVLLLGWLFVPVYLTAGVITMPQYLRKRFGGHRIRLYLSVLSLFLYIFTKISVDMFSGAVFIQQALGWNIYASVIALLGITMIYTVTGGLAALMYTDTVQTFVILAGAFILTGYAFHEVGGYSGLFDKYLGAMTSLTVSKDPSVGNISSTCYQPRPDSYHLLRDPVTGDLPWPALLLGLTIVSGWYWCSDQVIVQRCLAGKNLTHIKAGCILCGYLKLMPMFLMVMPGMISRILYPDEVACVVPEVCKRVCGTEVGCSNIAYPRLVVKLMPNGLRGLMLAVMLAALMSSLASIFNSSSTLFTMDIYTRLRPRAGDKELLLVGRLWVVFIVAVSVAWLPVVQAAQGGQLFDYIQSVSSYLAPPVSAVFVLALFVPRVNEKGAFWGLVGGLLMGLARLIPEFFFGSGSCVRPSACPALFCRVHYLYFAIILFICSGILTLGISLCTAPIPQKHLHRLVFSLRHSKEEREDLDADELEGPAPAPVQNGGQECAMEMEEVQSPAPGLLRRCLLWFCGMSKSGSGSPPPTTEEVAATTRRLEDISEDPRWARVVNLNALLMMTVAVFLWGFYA
Nature of the assay: Methyl-α-D-[U-14C]glucopyranoside uptake assay for SGLT-2 in CHO-K1 cells. The assay is classed as cell-based. To be noted: CHO-K1 cells expressing mSGLT-2, read-out: % inhibition of Methyl-α-D-[U-^14C] Glucopyranoside uptake (CHO-K1 cells) mediated by SGLT-2; for inhibition at 0.001 µM: 1 nM; for inhibition at 0.01 µM: 10 nM; for inhibition at 0.1 µM: 100 nM. The protocol: Preparation of Mouse SGLT-2 Expressing Cells
Full-length mouse SGLT-2 cDNA was amplified from C57BL/6J mouse kidneys and introduced in the pcDNA3.1(+) expression vector (Invitrogen, Inc.) and propagated in Escherichia coli strain DH5α using LuriaBertani (LB) medium containing ampicillin. […] Stably transfected cells were selected using G418 antibiotic selection pressure.
Methyl-α-D-[U-^14C]Glucopyranoside Uptake Assay for SGLT-2
as §1, with “Cells expressing mSGLT-2 were seeded” for “Cells expressing hSGLT-1 were seeded”, “FBS and 400 μg/mL G418 (0.8×10^5” for “FBS and 800 μg/ml G418 (0.8×10^5”, “test compounds at different concentrations diluted in” for “test compounds diluted in”, “assay buffer, 0.1 mM unlabeled” for “assay buffer, 1 mM unlabeled”, “0.25N NaOH. Methyl-α-D-[U-^14C]glucopyranoside uptake was” for “0.25N NaOH. Methyl-α-D[U-^14C]glucopyranoside uptake was”

The test system of a further assay is C57BL/6J mice. Nature of the assay: Estimation of urinary glucose in C57BL/6J mice. Type of assay: in vivo, mouse. The note with it: urine collected over 24 h. As to the method:
Estimation of Urinary Glucose in C57BL/6J Mice
C57BL/6J mice were fasted 4 h before drug treatment. Fasted mice were weighed and randomized into different groups based on their body weight (n=6). At time T0 test compounds and standard compounds suspended in 0.25% CMC or PEG 400 formulation, were administered to respective groups and kept in metabolic cages (6 mice/cage) after dosing. Animals were fed after drug administration and urine was collected over a period of 24 h. Urinary volume was measured and urinary glucose was estimated using Merckotest Glucose Reagent (Merck Specialties Pvt. Ltd., India).

The values that follow come from patent US9018249B2, “SGLT inhibitors” (Panacea Biotec Limited, priority 2011, dated 2015).

As for `CON=C(C)COc1ccc(Cc2cc(C3O[C@H](OC)[C@@H](O)[C@H](O)[C@H]3O)ccc2Cl)cc1` (stereo partly shown) [Compound 30], the inhibition (in general, the drop in the measured response relative to a control, in per cent) at 0.1 µM on human SGLT-1 (100 nM) worked out at 24%. Moreover, at human SGLT-1, the inhibition at 1 µM is 26.4% and the inhibition at 10 µM amounted to 77.9%. Besides, at mouse SGLT-2, the inhibition at 0.001 µM is 35.6%, the inhibition at 0.01 µM is 37.3% and the inhibition at 0.1 µM turned out to be 54%.
In the case of `CCON=CCOc1ccc(Cc2cc([C@]34OC[C@](CO)(O3)[C@@H](O)[C@H](O)[C@H]4O)ccc2Cl)cc1` [Compound 11], in the assay on C57BL/6J mice, the “UGE in mice (in mg/g of feed consumed) at 3 mpk” value is recorded as 56.1 mg/g of feed consumed. Besides, the inhibition at 0.1 µM on human SGLT-1 (100 nM) was determined as 25.7%. For the same compound, at human SGLT-1, the inhibition at 1 µM was 53.7% and the inhibition at 10 µM came to 68.2%. For the same compound, at mouse SGLT-2, the inhibition at 0.001 µM is less than 0%, the inhibition at 0.01 µM was 20.1% and the inhibition at 0.1 µM was determined as 50.8%.
Turning to `CON=CCCOc1ccc(Cc2cc(C3O[C@H](OC)[C@@H](O)[C@H](O)[C@H]3O)ccc2Cl)cc1` (stereo partly shown) [Compound 29], on human SGLT-1 (100 nM), the “% inhibition of Methyl-α-D-[U-^14C] Glucopyranoside uptake (CHO-K1 cells) mediated by SGLT-1” value is listed as “N.E”. On human SGLT-1, the inhibition at 1 µM turned out to be 70% and the inhibition at 10 µM was determined as 92.9%. At mouse SGLT-2, the inhibition at 0.001 µM turned out to be 40.2%, the inhibition at 0.01 µM was found to be 37.9% and the inhibition at 0.1 µM was 77.2%.
